# Patent US9205130B2, “Orally administrable pharmaceutical pellet of epidermal growth factor” (CENTRO DE INGENIERIA GENETICA Y BIOTECNOLOGIA, priority 2010, dated 2015)
# Test system: 3T3 A31 cells
# Assay: Biological activity: induction of proliferation of 3T3 A31 cells, crystal violet
# Assay type: cell-based, mouse
# Settings: before being formulated in form of capsule
# Experimental: The activity of epidermal growth factor in capsules of example 1 packaged in blisters and stored at temperatures of 5±3° C. were tested. This biological test is based on the capacity of the epidermal growth factor human recombinant (EGF Hu-r) to induce the proliferation of cell lines of mouse embryos of 3T3/A3 which are extremely sensitive to contact inhibition cell division.
# For determining the capability of induction of cell proliferation of EGF and its duration, the method comprises the quantification of the absorption of colorant crystal violet by the living cells 3T3 A31.
# The preparation of samples of EGF comprises the addition of 100 ml of phosphate saline buffer (PBS1×) to the content of 10 capsules of Example 1, maintaining agitation for 15 minutes. The resultant suspension was centrifuged for 5 minutes at 9000 rpm and the aqueous solution was collected.
# Cells 3T3 A31 in 96-plates at a concentration of 1.5×10^5 cells/mL were sown. These plates were incubated at 37° C., 5% CO2 and 95% humidity for 24 hours.
# After completing the incubation time, cells were washed twice with 100 μl of PBS1× and then 100 μl of DMEM 1× without fetal bovine serum (SFB) was added to the medium and plates were incubated at 37° C., 5% CO2 and 95% humidity for another 24 hours. […]
substance,measurement,value
"epidermal growth factor [epidermal growth factor human recombinant, before being formulated in form of capsule]",Reference biological activity of EGF,2×10^6 UI/mg
